In patent US9504673B2, “Agent for the prophylaxis and treatment of highly pathogenic infectious diseases” (priority 2009, dated 2016):
Where “and” joins values, the source holds several entries; their conditions need not be identical. Equal values may be shown once. Read-outs that look alike come from different tables or passages of the source.

Columns and labels:
[1] = system: influenza virus strain A/chicken/Kurgan/Russia/02/05 (H5N1); parameters: species or system white mice; settings: mouse, in vivo, po
[2] = system: severe acute respiratory syndrome virus; parameters: species or system Syrian hamsters; settings: hamster, in vivo, po
[3] = Acute toxicity study of glutaryl histamine; settings: male, nonlinear white (outbred), mouse, in vivo, po

| SMILES | Death rate ([1]; 5 mg/kg) | Deaths ([1]; 5 mg/kg) | Increase of mean lifetime Δ ([1]; 5 mg/kg) | Mean lifetime of animals in the group ([1]; 5 mg/kg) | Protective efficacy against death, % ([1]; 5 mg/kg) | Death rate ([1]; 15 mg/kg) | Increase of mean lifetime Δ ([1]; 15 mg/kg) | Mean lifetime of animals in the group ([1]; 15 mg/kg) | Protective efficacy against death, % ([1]; 15 mg/kg) | Therapeutic efficacy, % ([2]; 5 mg/kg) | Virus yield in the lungs at peak of infection (on day 4) 1 g PFU/ml ([2]; 5 mg/kg) | Virus yield in the lungs at peak of infection (on day 4) Δ, 1 g ([2]; 5 mg/kg) | Therapeutic efficacy, % ([2]; 15 mg/kg) [%] | Virus yield in the lungs at peak of infection (on day 4) 1 g PFU/ml ([2]; 15 mg/kg) | Virus yield in the lungs at peak of infection (on day 4) Δ, 1 g ([2]; 15 mg/kg) | LD50 [3] [mg/kg] | Death rate ([1]; 135 mg/kg) | Increase of mean lifetime Δ ([1]; 135 mg/kg) | Mean lifetime of animals in the group ([1]; 135 mg/kg) |
| --- | --- | --- | --- | --- | --- | --- | --- | --- | --- | --- | --- | --- | --- | --- | --- | --- | --- | --- | --- |
| O=C(O)CCCC(=O)NCCc1c[nH]cn1 [glutaryl histamine] | 12/20 | 11 | 2.7 days and 1.8 days | 10.9 days and 10.0 days | 45% and 40% | 12/20 and 13/20 | 2.4 days and 2.0 days | 11.0 days and 8.7 days | 40% and 35% | 20.0% and 30.0% | 7.5 1 g PFU/ml and 7.0 1 g PFU/ml | 0.8 1 g and 0.9 1 g | 40 | 3.8 1 g PFU/ml | 2.4 1 g | > 10000 | – | – | – |
| CCOC(=O)c1c(CSc2ccccc2)n(C)c2cc(Br)c(O)c(CN(C)C)c12 [Arbidol ®, reference compound] | – | – | – | – | – | – | – | – | – | – | – | – | – | – | – | – | 15/20 and 18/20 | 1.4 days and 1.1 days | 8.0 days and 7.2 days |
